Tested on: Capan-2 human pancreas tumour xenograft
Assay: Capan-2 human pancreas tumour xenograft model: tumour weight, with statistical analysis (ANOVA by day, Eav, log scale, exponential growth model)
Type: in vivo, Female Athymic Nude mice
Conditions: for Tumour weight, Difference vs Vehicle / Tumour weight, Estimate: Q3Dx4, G-Block IV, gemcitabine IP; for Estimate (mg), tumour weight geometric mean / Ratio vs Vehicle: Gemcitabine 5
Experimental: Efficacy was assessed by comparison of tumour weights of treated groups with the vehicle control group on Day 11 and 74 and between combination groups and their respective single agents on Day 11 and 74.
G-Block (Lot #PolyG 230712-Dp10, 95%G) was received as a white hygroscopic amorphous powder from NTNU Technology Transfer AS (Trondheim, Norway) and stored desiccated at room temperature until use. NTNU's G-Block was dissolved in MilliQ water to a concentration of 70 mg/ml to be used as the stock solution. This solution was used to deliver a dose of approximately 560 mg/kg in a 200 μl fixed dose. The 70 mg/ml solution was then diluted in 0.9% 150 mM NaCl (B. Braun Medical; Irvine, Calif.) to deliver doses of approximately 200 mg/kg, 75 mg/kg, 25 mg/kg, and 5 mg/kg in a 200 μL fixed dose volume. All dosing calculations assume a 25 g animal. NTNU's G-Block 70 mg/ml stock solution was formulated at the beginning of the study and used for dilutions before each dose, sterile filtered, and stored at 4° C. between doses. All unused dosing mixture was properly disposed of at TD2 after the study ended.
All unused dosing mixture was properly disposed of at TD2 after each dose.
Vehicle control was dosed with a solution of 0.9% 150 mM NaCl at a 10 ml/kg dose volume. Vehicle control was stored at room temperature.
Capan-2 human pancreas tumour xenograft cell line was received from ATCC (Manassas, Va.). Cultures were maintained in McCoy's 5A medium (Hyclone, Logan, Utah) supplemented with 10% fetal bovine serum (Omega Scientific; Tarzana, Calif.), and housed in a 5% CO2 atmosphere. The cultures were expanded in tissue culture flasks at a 1:5 split ratio until a sufficient amount of cells were harvested.
Female Athymic Nude mice (Hsd:Athymic Nude-Foxn1^nu) were supplied by Harlan (Germantown, N.Y.). Mice were received at 4 weeks of age. All mice were acclimated prior to handling. The mice were housed in microisolator cages (Lab Products, Seaford, Del.) and maintained under specific pathogen-free conditions. The mice were fed Tekland Global Diet® 2920× irradiated laboratory animal diet (Harlan, Indianapolis, Ind.) and autoclaved water was freely available. All procedures were carried out under the institutional guidelines of TGen Drug Development Institutional Animal Care and Use Committee (Protocol #13046).
Female mice were inoculated subcutaneously in the right flank with 0.1 mL of a 50% RPMI/50% Matrigel™ (BD Biosciences, Bedford, Mass.) mixture containing a suspension of Capan-2 tumor cells (approximately 5.0×10^6 cells/mouse). Seven days following inoculation, tumors were measured using calipers and tumor weight was calculated using the animal study management software, Study Director V.2.1.1 (Study Log)^1. Eighty mice with tumor sizes of 101-194 mg were randomized into eight groups of ten mice each by random equilibration with a mean of approximately 140 mg, using Study Director (Day 1). Body weights were recorded when the mice were randomized and were taken twice weekly thereafter in conjunction with tumor measurements. Dosing was performed as described below in Table 1.
All groups were terminated on Day 74. Mice were sacrificed prior to study end if tumor weight exceeded 1500 mg. Upon necropsy, tumors were excised from all animals in all groups and bisected in halves, placed in formalin vials (Azer Scientific/VWR; Franklin Lakes, N.J.) then fixed for approximately 24 hours before transferring to ethanol. Formalin-fixed tissues were embedded in paraffin, processed, and H & E stained.
The following concerns a statistical analysis of tumour weights in the study reported in Example 2. […] Tumour weight and body weights were assessed Day 1 and then twice weekly up to last assessment on Day 74.
Treatments were compared using an analysis of variance (ANOVA) model with fixed factor treatment and tumour weight at Day 1 as a covariate and assuming equal variance for each assessment (Day 1 model without covariate).

[1] = 0-19 days, label number = dose mg/kg, Q3Dx4
[2] = 0-29 days, label number = dose mg/kg, Q3Dx4
[3] = 0-39 days, label number = dose mg/kg, Q3Dx4
[4] = 0-50 days, label number = dose mg/kg, Q3Dx4
[5] = 0-60 days, label number = dose mg/kg, Q3Dx4
[6] = Day 1 (randomisation), label number = dose mg/kg
[7] = Day 4, label number = dose mg/kg
[8] = Day 8, label number = dose mg/kg
[9] = Day 11, label number = dose mg/kg
[10] = Day 16, label number = dose mg/kg
[11] = Day 19, label number = dose mg/kg
[12] = Day 22, label number = dose mg/kg
[13] = Day 25, label number = dose mg/kg
[14] = Day 29, label number = dose mg/kg
[15] = Day 32, label number = dose mg/kg
[16] = Day 36, label number = dose mg/kg
[17] = Day 39, label number = dose mg/kg
[18] = Day 43, label number = dose mg/kg
[19] = Day 46, label number = dose mg/kg
[20] = Day 50, label number = dose mg/kg
[21] = Day 53, label number = dose mg/kg
[22] = Day 57, label number = dose mg/kg
[23] = Day 60, label number = dose mg/kg
[24] = Day 64, label number = dose mg/kg
[25] = Day 67, label number = dose mg/kg
[26] = Day 71, label number = dose mg/kg
[27] = Day 74, label number = dose mg/kg

Nc1ccn([C@@H]2O[C@H](CO)[C@@H](O)C2(F)F)c(=O)n1 [Gemcitabine 5, Gemcitabine]
Eau, 0-19 (average tumour weight = AUC / interval length), Estimate [1]: 173.4 mg
Eau, 0-19, Difference vs Vehicle [1]: -67.6 mg
Eau, 0-29 (average tumour weight = AUC / interval length), Estimate [2]: 195.5 mg
Eau, 0-29, Difference vs Vehicle [2]: -93.6 mg
Eau, 0-39 (average tumour weight = AUC / interval length), Estimate [3]: 231.3 mg
Eau, 0-39, Difference vs Vehicle [3]: -118.1 mg
Eau, 0-50 (average tumour weight = AUC / interval length), Estimate [4]: 292.1 mg
Eau, 0-50, Difference vs Vehicle [4]: -121.2 mg
Eau, 0-60 (average tumour weight = AUC / interval length), Estimate [5]: 349.7 mg
Eau, 0-60, Difference vs Vehicle [5]: -118.4 mg
Consistent statistically significant effect versus Vehicle on tumour weight, up to Day (ANOVA by day): ≤ 36
Eav intervals with statistically significant effects versus Vehicle, up to (ANOVA of Eav): up to 50 days
Tumour weight, Difference vs Vehicle [6]: -0.0 mg
Tumour weight, Estimate [6]: 140.7 mg
Estimate (mg), tumour weight geometric mean (Day 1): 138.6 mg
Ratio vs Vehicle (Day 1): 1.00
Estimate (mg), tumour weight geometric mean (Day 4): 186.7 mg
Tumour weight, Difference vs Vehicle [7]: 14.1 mg
Tumour weight, Estimate [7]: 189.8 mg
Estimate (mg), tumour weight geometric mean (Day 8): 157.0 mg
Ratio vs Vehicle (Day 8): 0.71
Tumour weight, Difference vs Vehicle [8]: -69.0 mg
Tumour weight, Estimate [8]: 161.6 mg
Estimate (mg), tumour weight geometric mean (Day 11): 167.8 mg
Ratio vs Vehicle (Day 11): 0.64
Tumour weight, Difference vs Vehicle [9]: -111.0 mg
Tumour weight, Estimate [9]: 174.2 mg
Estimate (mg), tumour weight geometric mean (Day 16): 172.5 mg
Ratio vs Vehicle (Day 16): 0.63
Tumour weight, Difference vs Vehicle [10]: -116.3 mg
Tumour weight, Estimate [10]: 181.4 mg
Estimate (mg), tumour weight geometric mean (Day 19): 185.1 mg
Ratio vs Vehicle (Day 19): 0.64
Tumour weight, Difference vs Vehicle [11]: -119.5 mg
Tumour weight, Estimate [11]: 194.7 mg
Estimate (mg), tumour weight geometric mean (Day 22): 216.1 mg
Ratio vs Vehicle (Day 22): 0.67
Tumour weight, Difference vs Vehicle [12]: -122.5 mg
Tumour weight, Estimate [12]: 225.0 mg
Estimate (mg), tumour weight geometric mean (Day 25): 233.4 mg
Ratio vs Vehicle (Day 25): 0.64
Tumour weight, Difference vs Vehicle [13]: -157.9 mg
Tumour weight, Estimate [13]: 244.0 mg
Estimate (mg), tumour weight geometric mean (Day 29): 258.9 mg
Ratio vs Vehicle (Day 29): 0.64
Tumour weight, Difference vs Vehicle [14]: -164.9 mg
Tumour weight, Estimate [14]: 273.6 mg
Estimate (mg), tumour weight geometric mean (Day 32): 286.5 mg
Ratio vs Vehicle (Day 32): 0.62
Tumour weight, Difference vs Vehicle [15]: -208.5 mg
Tumour weight, Estimate [15]: 310.1 mg
Estimate (mg), tumour weight geometric mean (Day 36): 324.4 mg
Ratio vs Vehicle (Day 36): 0.68
Tumour weight, Difference vs Vehicle [16]: -190.3 mg
Tumour weight, Estimate [16]: 360.9 mg
Estimate (mg), tumour weight geometric mean (Day 39): 349.9 mg
Ratio vs Vehicle (Day 39): 0.78
Tumour weight, Difference vs Vehicle [17]: -165.4 mg
Tumour weight, Estimate [17]: 389.6 mg
Estimate (mg), tumour weight geometric mean (Day 43): 439.5 mg
Ratio vs Vehicle (Day 43): 0.84
Tumour weight, Difference vs Vehicle [18]: -138.1 mg
Tumour weight, Estimate [18]: 506.6 mg
Estimate (mg), tumour weight geometric mean (Day 46): 460.6 mg
Ratio vs Vehicle (Day 46): 0.86
Tumour weight, Difference vs Vehicle [19]: -107.4 mg
Tumour weight, Estimate [19]: 536.4 mg
Estimate (mg), tumour weight geometric mean (Day 50): 485.0 mg
Ratio vs Vehicle (Day 50): 0.85
Tumour weight, Difference vs Vehicle [20]: -130.4 mg
Tumour weight, Estimate [20]: 573.5 mg
Estimate (mg), tumour weight geometric mean (Day 53): 530.7 mg
Ratio vs Vehicle (Day 53): 0.93
Tumour weight, Difference vs Vehicle [21]: -61.2 mg
Tumour weight, Estimate [21]: 653.0 mg
Estimate (mg), tumour weight geometric mean (Day 57): 516.6 mg
Ratio vs Vehicle (Day 57): 0.90
Tumour weight, Difference vs Vehicle [22]: -144.3 mg
Tumour weight, Estimate [22]: 626.6 mg
Estimate (mg), tumour weight geometric mean (Day 60): 539.6 mg
Ratio vs Vehicle (Day 60): 1.00
Tumour weight, Difference vs Vehicle [23]: -84.5 mg
Tumour weight, Estimate [23]: 680.5 mg
Estimate (mg), tumour weight geometric mean (Day 64): 633.3 mg
Tumour weight, Difference vs Vehicle [24]: 76.1 mg
Tumour weight, Estimate [24]: 869.5 mg
Estimate (mg), tumour weight geometric mean (Day 67): 695.7 mg
Tumour weight, Difference vs Vehicle [25]: 85.1 mg
Tumour weight, Estimate [25]: 952.8 mg
Estimate (mg), tumour weight geometric mean (Day 71): 746.4 mg
Tumour weight, Difference vs Vehicle [26]: 54.2 mg
Tumour weight, Estimate [26]: 1078.5 mg
Estimate (mg), tumour weight geometric mean (Day 74): 746.3 mg
Ratio vs Vehicle (Day 74): 1.33
Tumour weight, Difference vs Vehicle [27]: 157.2 mg
Tumour weight, Estimate [27]: 1009.1 mg
Estimated differences vs Vehicle in growth rates (exponential model y=C*exp(a*t), t in days, data up to 60 days, label number = dose mg/kg): −0.0042
Estimated differences between active treatments in growth rates, vs G-B 560 (exponential model, data up to 60 days, contrast vs G-Block 560 mg/kg alone): −0.0015

From patent publication US20160346313A1, “USES OF OLIGOURONATES IN CANCER TREATMENT” (NORWEGIAN UNIVERSITY OF SCIENCE AND TECHNOLOGY, priority 2013, published 2016)
